EC50 and IC50 data for 29 compounds are collected here from patent US7265152B2 (ViroPharma Incorporated, priority 2002, dated 2007).

Experiment [1] deals with HCV replicon (BB7 sequence) in Huh-7-Clone A cells. In words: HCV replicon assay: ELISA of NS5A protein in replicon-containing cells (Inhibition of Viral RNA Replication). Format: cell-based. Put shortly:
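Huh-7-Clone A cells carrying subgenomic BB7 HCV replicon (G418-selectable) incubated 72 h with compound. NS5A protein quantified by cell ELISA: glutaraldehyde fixation, anti-NS5A monoclonal plus HRP secondary, TMB read at OD 650 nm. EC50 derived from 8-point serial dilution dose curve.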
On the technique in general: A replicon is a self-replicating genome or part of one, used to study replication in cells.

For the next experiment, the target named is T1, HCV NS5B (Hepatitis C virus genotype 1b, UniProt Q9WMX2).
T1 construct: fusion protein, of which the carboxyl terminal 21 amino acids were removed to enhance its solubility; His tag (GSHHHHHH); made in house; host or cells: E. coli
In words: Inhibition of viral RNA-dependent RNA polymerase (RdRp), in vitro biochemical assay. To be noted: HCV NS5B RdRp, BB7 genotype 1b; read-out: HCV pol-BB7 IC50. Further details: species or system HCV genotype 1b virus (BB7). In outline: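 Purified recombinant NS5B from a genotype 1b consensus (BB7), His-tagged, E. coli-expressed, with the C-terminal 21 residues deleted. Inhibition of RdRp activity in vitro was measured, and IC50 is the concentration giving 50% inhibition.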

Setting [2] is: Hepatitis C virus, ranges of EC50 in HCV replicon assay, read-out: Replicon.

The structures appear in SMILES notation. Read-outs that look alike come from different tables or passages of the source.

Turning to `CNC(=O)c1c(-c2ccc(F)cc2)oc2cc(N(CC3CC3)S(C)(=O)=O)c(OC(C)C)cc12` [Example 137, 6-(Cyclopropylmethyl-methanesulfonyl-amino)-2-(4-fluoro-phenyl)-5-isopropoxy-benzofuran-3-carboxylic acid methylamide], in experiment [1] (setting [2]), the EC50 was < 1 µM. In addition, on HCV NS5B, the IC50 was ≤ 0.5 µM.
Taken in the same sequence, the figures for `CNC(=O)c1c(-c2ccc(F)cc2)oc2cc(N3CC(C)OC(C)C3)c(OC(C)C)cc12` (stereo not shown) [Example 138, 6-(2,6-Dimethyl-morpholin-4-yl)-2-(4-fluoro-phenyl)-5-isopropoxy-benzofuran-3-carboxylic acid methylamide] were < 10 µM and 0.5 to 5 µM.
Taken in the same sequence, the figures for `CNC(=O)c1c(-c2ccc(F)cc2)oc2cc(-c3nnn[nH]3)c(OC(C)C)cc12` [Example 139, 2-(4-Fluoro-phenyl)-5-isopropoxy-6-(1H-tetrazol-5-yl)-benzofuran-3-carboxylic acid methylamide] were > 30 µM and 0.5 to 5 µM.
Taken in the same sequence, the figures for `CNC(=O)c1c(-c2ccc(F)cc2)oc2cc(N3CCC(O)CC3)c(OC(C)C)cc12` [Example 140, 2-(4-Fluoro-phenyl)-6-(4-hydroxy-piperidin-1-yl)-5-isopropoxy-benzofuran-3-carboxylic acid methylamide] were < 10 µM and 0.5 to 5 µM.
For `CNC(=O)c1c(-c2ccc(F)cc2)oc2cc(N3CCCC(O)C3)c(OC(C)C)cc12` (stereo not shown) [Example 141, 2-(4-Fluoro-phenyl)-6-(3-hydroxy-piperidin-1-yl)-5-isopropoxy-benzofuran-3-carboxylic acid methylamide], the EC50 in experiment [1] (setting [2]) is < 10 µM. Further, on HCV NS5B, the IC50 is 0.5 to 5 µM.
Consider `CNC(=O)c1c(-c2ccc(F)cc2)oc2cc(S(=O)(=O)N3CCOCC3)c(OC(C)C)cc12` [Example 142, 2-(4-Fluoro-phenyl)-5-isopropoxy-6-(morpholine-4-sulfonyl)-benzofuran-3-carboxylic acid methylamide], for which the EC50 in experiment [1] (setting [2]) was < 10 µM. Further, the half-inhibitory concentration (IC50) at HCV NS5B is ≤ 0.5 µM.
Taken in the same sequence, the figures for `CNC(=O)c1c(-c2ccc(F)cc2)oc2cc(S(=O)(=O)NC)c(OC(C)C)cc12` [Example 143, 2-(4-Fluoro-phenyl)-5-isopropoxy-6-methylsulfamoyl-benzofuran-3-carboxylic acid methylamide] were > 30 µM and ≤ 0.5 µM.
Taken in the same sequence, the figures for `CNC(=O)c1c(-c2ccc(F)cc2)oc2cc(S(=O)(=O)N(C)C)c(OC(C)C)cc12` [Example 144, 6-Dimethylsulfamoyl-2-(4-fluoro-phenyl)-5-isopropoxy-benzofuran-3-carboxylic acid methylamide] were < 30 µM and ≤ 0.5 µM.
Taken in the same sequence, the figures for `CNC(=O)c1c(-c2ccc(F)cc2)oc2cc(NS(=O)(=O)C(C)C)c(OC(C)C)cc12` [Example 145, 2-(4-Fluoro-phenyl)-5-isopropoxy-6-(propane-2-sulfonylamino)-benzofuran-3-carboxylic acid methylamide] were < 10 µM and 0.5 to 5 µM.
For the compound `CNC(=O)c1c(-c2ccc(F)cc2)oc2cc(C(N)=O)c(OC(C)C)cc12` [Example 146, 2-(4-Fluoro-phenyl)-5-isopropoxy-benzofuran-3,6-dicarboxylic acid 6-amide 3-methylamide], in experiment [1] (ranges of EC50 in HCV replicon assay, read-out: Replicon), the EC50 is > 30 µM. Besides, the IC50 at HCV NS5B lay within 0.5 to 5 µM.
For the compound `CNC(=O)c1c(-c2ccc(F)cc2)oc2cc(-c3cncnc3)c(OC(C)C)cc12` [Example 147, 2-(4-Fluoro-phenyl)-5-isopropoxy-6-pyrimidin-5-y1-benzofuran-3-carboxylic acid mehtylamide], the EC50 in experiment [1] (setting [2]) was < 10 µM. Moreover, the concentration for half-maximal inhibition (IC50) on HCV NS5B was ≤ 0.5 µM.
As for `CNC(=O)c1c(-c2ccc(F)cc2)oc2cc(NC(C)(C)C)c(OC(C)C)cc12` [Example 148, 6-tert-Butylamino-2-(4-fluoro-phenyl)-5-isopropoxy-benzofuran-3-carboxylic acid methylamide], the EC50 in experiment [1] (setting [2]) is < 10 µM. The IC50 on HCV NS5B was ≤ 0.5 µM.
Taken in the same sequence, the figures for `CNC(=O)c1c(-c2ccc(F)cc2)oc2cc(S(N)(=O)=O)c(OC(C)C)cc12` [Example 149, 2-(4-Fluoro-phenyl)-5-isopropoxy-6-sulfamoyl-benzofuran-3-carboxylic acid methylamide] were > 30 µM and 5 to 30 µM.
In the case of `CNC(=O)c1c(-c2ccc(F)cc2)oc2cc(S(=O)(=O)NC3CCC3)c(OC(C)C)cc12` [Example 150, 6-Cyclobutylsulfamoyl-2-(4-fluoro-phenyl)-5-isopropoxy-benzofuran-3-carboxylic acid methylamide], the EC50 in experiment [1] (setting [2]) was < 30 µM. Besides, at HCV NS5B, the 50% inhibitory concentration (IC50) was in the range of 0.5 to 5 µM.
Taken in the same sequence, the figures for `CNC(=O)c1c(-c2ccc(F)cc2)oc2cc(-c3ccco3)c(OC(C)C)cc12` [Example 151, 2-(4-Fluoro-phenyl)-6-furan-2-yl-5-isopropoxy-benzofuran-3-carboxylic acid methylamide] were < 30 µM and ≤ 0.5 µM.
Taken in the same sequence, the figures for `CNC(=O)c1c(-c2ccc(F)cc2)oc2cc(-c3ccoc3)c(OC(C)C)cc12` [Example 152, 2-(4-Fluoro-phenyl)-6-furan-3-yl-5-isopropoxy-benzofuran-3-carboxylic acid methylamide] were < 10 µM and ≤ 0.5 µM.
In the case of `CNC(=O)c1c(-c2ccc(F)cc2)oc2cc(-c3cccnc3)c(OC(C)C)cc12` [Example 153, 2-(4-Fluoro-phenyl)-5-isopropoxy-6-pyridin-3-yl-benzofuran-3-carboxylic acid methylamide], the EC50 in experiment [1] (setting [2]) is < 10 µM. In addition, at HCV NS5B, the concentration for half-maximal inhibition (IC50) is ≤ 0.5 µM.
Taken in the same sequence, the figures for `CNC(=O)c1c(-c2ccc(F)cc2)oc2cc(S(=O)(=O)N3CCCC3)c(OC(C)C)cc12` [Example 154, 2-(4-Fluoro-phenyl)-5-isopropoxy-6-(pyrrolidine-1-sulfonyl)-benzofuran-3-carboxylic acid methylamide] were < 10 µM and ≤ 0.5 µM.
Taken in the same sequence, the figures for `CNC(=O)c1c(-c2ccc(F)cc2)oc2cc(S(=O)(=O)NC3CC3)c(OC(C)C)cc12` [Example 155, 6-Cyclopropylsulfamoyl-2-(4-fluoro-phenyl)-5-isopropoxy-benzofuran-3-carboxylic acid methylamide] were < 10 µM and ≤ 0.5 µM.
Regarding `CCS(=O)(=O)Nc1cc2oc(-c3ccc(F)cc3)c(C(=O)NC)c2cc1OC(C)C` [Example 156], in experiment [1] (Hepatitis C virus, read-out: Replicon (μM)), the EC50 is < 10 µM. Further, the IC50 on HCV NS5B is ≤ 0.5 µM.
On to `C=Cc1cc2oc(-c3ccc(F)cc3)c(C(=O)NC)c2cc1OC(C)C` [Example 157, 2-(4-Fluoro-phenyl)-5-isopropoxy-6-vinyl-benzofuran-3-carboxylic acid methylamide], for which, in experiment [1] (setting [2]), the EC50 was < 10 µM. Further, the half-inhibitory concentration (IC50) on HCV NS5B is ≤ 0.5 µM.
With `CNC(=O)c1c(-c2ccc(F)cc2)oc2cc(OC)c(OC(C)C)cc12` [Example 158, 2-(4-Fluoro-phenyl)-5-isopropoxy-6-methoxy-benzofuran-3-carboxylic acid methylamide], the EC50 in experiment [1] (setting [2]) was < 10 µM. Moreover, the IC50 at HCV NS5B is ≤ 0.5 µM.
For the compound `CNC(=O)c1c(-c2ccc(F)cc2)oc2cc(-c3c(C)noc3C)c(OC(C)C)cc12` [Example 159, 6-(3,5-Dimethyl-isoxazol-4-yl)-2-(4-fluoro-phenyl)-5-isopropoxy-benzofuran-3-carboxylic acid methylamide], the EC50 in experiment [1] (setting [2]) is < 1 µM. Also, the IC50 at HCV NS5B was ≤ 0.5 µM.
Taken in the same sequence, the figures for `CNC(=O)c1c(-c2ccc(F)cc2)oc2cc(C=O)c(OC(C)C)cc12` [Example 160, 2-(4-Fluoro-phenyl)-6-formyl-5-isopropoxy-benzofuran-3-carboxylic acid methylamide] were < 30 µM and ≤ 0.5 µM.
With `CNC(=O)c1c(-c2ccc(F)cc2)oc2cc(-c3ccc(F)nc3)c(OC(C)C)cc12` [Example 161, 2-(4-Fluoro-phenyl)-6-(6-fluoro-pyridin-3-yl)-5-isopropoxy-benzofuran-3-carboxylic acid methylamide], the EC50 in experiment [1] (setting [2]) is < 10 µM. Moreover, the IC50 on HCV NS5B was ≤ 0.5 µM.
Taken in the same sequence, the figures for `CNC(=O)c1c(-c2ccc(F)cc2)oc2cc(CNS(C)(=O)=O)c(OC(C)C)cc12` [Example 162, 2-(4-Fluoro-phenyl)-5-isopropoxy-6-(methanesulfonylamino-methyl)-benzofuran-3-carboxylic acid methylamide] were < 10 µM and 0.5 to 5 µM.
For the compound `CNC(=O)c1c(-c2ccc(F)cc2)oc2cc(N(C3CCCC3)S(C)(=O)=O)c(OC(C)C)cc12` [Example 163, 6-(Cyclopentyl-methanesulfonyl-amino)-2-(4-fluoro-phenyl)-5-isopropoxy-benzofuran-3-carboxylic acid methylamide], the EC50 in experiment [1] (setting [2]) was < 1 µM. Further, the concentration for half-maximal inhibition (IC50) on HCV NS5B was ≤ 0.5 µM.
`CNC(=O)c1c(-c2ccc(F)cc2)oc2cc(N(CCO)S(C)(=O)=O)c(OC(C)C)cc12` [Example 164, 2-(4-Fluoro-phenyl)-6-[(2-hydroxy-ethyl)-methanesulfonyl-amino]-5-isopropoxy-benzofuran-3-carboxylic acid methylamide]: the EC50 in experiment [1] (setting [2]) is < 10 µM. Further, the half-inhibitory concentration (IC50) on HCV NS5B was ≤ 0.5 µM.
Taken in the same sequence, the figures for `CNC(=O)c1c(-c2ccc(F)cc2)oc2cc(OC)c(O)cc12` [Example 165, 2-(4-Fluoro-phenyl)-5-hydroxy-6-methoxy-benzofuran-3-carboxylic acid methylamide] were > 30 µM and 5 to 30 µM.

The term IC50 denotes the concentration that gives 50% inhibition.
